{"source": "patent US5292729A", "about": "“II-bond aromatic vitamin chelates” (Albion International, Inc., priority 1992, dated 1994)", "key": {"[1]": {"assay": "65Zn level in blood of rats after oral gavage, scintillation count", "conditions": "oral 0.03 mg Zn, 15 μcuries 65Zn, mean ± standard deviation", "experimental": "(§1) The chelate thus prepared was diluted such that a 5 μl dose contained about 0.03 mg Zn and 15 μcuries of ^65 Zn activity. This dose, when administered to a standard laboratory rat weighing 150±25 gms, closely approximates the RDA of 15 mg Zn for a human being weighing about 70 kg.\n(§2) Ten Sprague Dawley rats, weighing 190±10 grams each were divided into two groups of five rats. Five rats were designated the test group and the other five rats the control group.\n(§3) No surgery was performed as all animals were given light doses of nembutal (40 mg/kg) to improve ease of handling and minimize injury during lavage and bloodletting.\nBeginning 30 minutes after dosing and continuing at 30 minute intervals up to a period of 3 hours following dosing, 0.1 ml of blood was withdrawn from rats in both the test and control groups. The blood was then analyzed for ^65 Zn by scintillation count."}, "[2]": {"assay": "65Zn isotope levels in urine and tissues of sacrificed rats", "experimental": "as §1, §2, §3\nThe rats used in Example 22 were sacrificed after completion of the testing and the urine, liver, muscle, kidney, brain and spleens from the animals in each grouping were collected for comparative ^65 zinc isotope levels."}}}
{"smiles": "[Cl-].[Cl-].[Zn+2]", "note": "[ZnCl2]", "values": [{"measurement": "65Zn in blood", "setting": "[1]; 0.5 hrs after dosing", "value": "210 ± 11", "unit": "CCPM"}, {"measurement": "65Zn in blood", "setting": "[1]; 1.0 hrs after dosing", "value": "226 ± 14", "unit": "CCPM"}, {"measurement": "65Zn in blood", "setting": "[1]; 1.5 hrs after dosing", "value": "212 ± 26", "unit": "CCPM"}, {"measurement": "65Zn in blood", "setting": "[1]; 2.5 hrs after dosing", "value": "206 ± 8", "unit": "CCPM"}, {"measurement": "65Zn in blood", "setting": "[1]; 3.0 hrs after dosing", "value": "207 ± 8", "unit": "CCPM"}, {"measurement": "65Zn in brain", "setting": "[2]; brain, after 3 hour test", "value": 0, "unit": "CCPM"}, {"measurement": "65Zn in kidney", "setting": "[2]; kidney, after 3 hour test", "value": 24, "unit": "CCPM"}, {"measurement": "65Zn in liver", "setting": "[2]; liver, after 3 hour test", "value": 50, "unit": "CCPM"}, {"measurement": "65Zn in muscle", "setting": "[2]; muscle, after 3 hour test", "value": 0, "unit": "CCPM"}, {"measurement": "65Zn in spleen", "setting": "[2]; spleen, after 3 hour test", "value": 16, "unit": "CCPM"}, {"measurement": "excretion of zinc compared with the chelated form", "setting": "[2]; urine", "value": "excreted more readily"}, {"measurement": "65Zn in urine", "setting": "[2]; urine, after 3 hour test", "value": 38, "unit": "CCPM"}]}
